# Measurements from US5104492A, “Recovery of carboxylic acids from water by precipitation from organic solutions” (The Regents of the University of California, priority 1990, dated 1992).
# How the values were obtained:
# [1] = Description: An aqueous solution of fumaric acid was extracted with methyl isobutyl ketone (MIBK).
# [2] = Solubility in MIBK plus 0.064 M tri-octyl/decyl amine; type: physicochemical
# Description: (§1) The use of MIBK plus 0.064 M tri-octyl/decyl amine as an organic phase was studied.
# [3] = Solubility in octanol (Example 4 repeated); type: physicochemical
# Description: as §1
# The experiment of Example 4 was repeated using octanol as organic solvent.
# [4] = Solubility in butyl ether (Example 4 repeated); type: physicochemical
# Description: as §1
# The experiment of Example 4 was repeated using butyl ether as organic solvent.
smiles,measurement,setting,value
O=C(O)/C=C/C(=O)O [fumaric acid],solubility relative to the level observed at saturation level of water,[1],less than 1/5th
same,amount of acid in MIBK extract,"[1]; MIBK extract before stripping, […] by weight water",0.0874 mol/L
same,solubility of the acid in the ketone,[1]; dry mibk,15.8 mM
same,Acid Concentration,[2]; nearly anhydrous,0.115 mol/L
same,Acid Concentration,[2]; water saturated,0.158 mol/L
same,Acid Concentration,[3]; water 0.066 moles/liter,0.0614 mol/L
same,Acid Concentration,[3]; water 1.54 moles/liter,0.0899 mol/L
same,Acid Concentration,[3]; water 2.24 moles/liter,0.0961 mol/L
same,Acid Concentration,[4]; water 0.0005 moles/liter,0.0023 mol/L
same,Acid Concentration,[4]; water 0.084 moles/liter,0.0036 mol/L
